Test results as given in patent publication US20260285888A1, “HETEROCYCLIC COMPOUND AND USE THEREOF” (OTSUKA PHARMACEUTICAL CO., LTD., priority 2023, published 2026).

Experiments:
in vitro = format: cell-based, human; conditions: human, differentiated hl-60 cells, 300 μmol/L, about 24 hours, PMA-differentiated HL-60 cells, LDH; no-treatment 0%, cell lysis buffer 100%; read-out: cytotoxicity (%) Evaluation compound results
Procedure: An HL-60 cell line (human acute promyelocytic leukemia cells) was successively cultured in RPMI 1640 containing 20% fetal bovine serum (FBS) at 37° C. in 95% atmosphere/5% CO2. Before evaluation, the cells were pre-cultured for about 72 hours in the presence of 10 nM phorbol 12-myristate 13-acetate (PMA) to induce macrophage-like differentiation.
Evaluation compounds were dissolved in DMSO to obtain 30 mmol/L solutions (or suspensions). Each DMSO solution was diluted 100-fold with RPMI 1640 containing 2% FBS (final concentration of the compound: 300 μmol/L) to obtain a treatment solution. The culture supernatant of the differentiated HL-60 cells was removed, and each treatment solution was added and cultured for about 24 hours, followed by cytotoxicity evaluation.
The activity of lactate dehydrogenase (LDH) was measured in the treatment solutions exposed to the cells for about 24 hours by using a commercial kit (Cytotoxicity LDH Assay Kit-WST, Dojindo Laboratories) and a plate reader (Tecan Infinite M1000). The obtained measurement values were used to calculate cytotoxicity (%) as comparison values for each evaluation compound-treated group, with the no-treatment group taken as 0% and the cell lysis buffer-treated group taken as 100%. The test was conducted in triplicate in three wells each, and the average values were used as adopted values.

[1] = Study for confirmation of conversion to brexpiprazole in a buffer (stability of the evaluation compounds); format: physicochemical; conditions: in buffer, average of duplicate; for Concentration of brexpiprazole formed: 60-minute reaction sample; for Concentration of evaluation compound decreased: decrease in 60-minute vs 0-minute reaction sample
Procedure: The conversion from the evaluation compounds to brexpiprazole in a buffer (i.e., the stability of the evaluation compounds) was evaluated.
The Example 1 compound was dissolved in acetonitrile/water (1:1, v/v) to 10 mmol/L and further diluted with acetonitrile/water (1:1, v/v) to 100 μmol/L for use.
The other Example compounds and the Reference Example 5 compound to Reference Example 7 compound were each dissolved in DMSO to 10 mmol/L and further diluted with acetonitrile to 100 μmol/L for use, except for the following compounds.
The compounds of Examples 52, 95, 96, 117, and 130 (EX 52, EX 95, EX 96, EX 117, and EX 130) were dissolved in acetonitrile/water (8:2, v/v) to 10 mmol/L and further diluted with acetonitrile to 100 μmol/L for use.
The compound of Example 97 (EX 97) was dissolved in acetonitrile/water (8:2, v/v) to 10 mmol/L and further diluted with acetonitrile/water (8:2, v/v) to 100 μmol/L for use.
The compounds of Examples 15 and 116 (EX 15 and EX 116) were dissolved in DMSO to 1 mmol/L and further diluted with acetonitrile to 100 μmol/L for use.
The reaction was conducted by preparing each reaction solution such that the final concentration of each component was as follows. The test was conducted in duplicate.
For the compounds of Examples 1 to 8, 10 to 19, 26 to 27, 37, 50, 87 to 89, 91, 116, 121, 123, 150, and 151 (EX 1 to EX 8, EX 10 to EX 19, EX 26 to EX 27, EX 37, EX 50, EX 87 to EX 89, EX 91, EX 116, EX 121, EX 123, EX 150, and EX 151), and the compounds of Reference Examples 5 to 7 (REX 5 to REX 7), the reaction solution without the evaluation compound (198 μl) was pre-incubated at 37° C. for 3 minutes, and then each of the evaluation compound solutions (2 μl) was added and stirred; thereafter, the reaction was started at 37° C. At 0 minutes or 60 minutes after the start of the reaction, the reaction was stopped by adding and stirring a reaction stop solution (1000 μl) composed of acetonitrile/isopropanol (4:1, v/v) containing internal standard substances. However, the 0-minute reaction sample (198 μl) was prepared by adding the evaluation compound (2 μl) after adding the reaction stop solution (1000 μl). The samples after stopping the reaction were used as the measurement samples. Calibration curve samples with the same composition were prepared (final concentrations of the evaluation compounds and brexpiprazole: 0.01, 0.1, and 1 μmol/L, with the proviso that for the evaluation compounds only, the 0-minute reaction samples were also used as calibration curve samples for 1 μmol/L).
For the compounds of Examples 24 to 25, 28 to 29, 32 to 36, 40 to 49, 51 to 60, 62 to 64, 66 to 77, 80 to 86, 90, 92 to 111, 113, 115, 117 to 120, 122, 124 to 130, 132 to 147, and 152 to 160 (EX 24 to EX 25, EX 28 to EX 29, EX 32 to EX 36, EX 40 to EX 49, EX 51 to EX 60, EX 62 to EX 64, EX 66 to EX 77, EX 80 to EX 86, EX 90, EX 92 to EX 111, EX 113, EX 115, EX 117 to EX 120, EX 122, EX 124 to EX 130, EX 132 to EX 147, and EX 152 to EX 160), the reaction solution without the evaluation compound (148.5 μl) was pre-incubated at 37° C. for 3 minutes, and then each of the evaluation compound solutions (1.5 μl) was added and stirred; thereafter, the reaction was started at 37° C. At 0 minutes or 60 minutes after the start of the reaction, the reaction was stopped by adding and stirring a reaction stop solution (600 μl) composed of acetonitrile/isopropanol (4:1, v/v) containing internal standard substances. However, the 0-minute reaction sample (148.5 μl) was prepared by adding the evaluation compound (1.5 μl) after adding the reaction stop solution (600 μl). The samples after stopping the reaction were used as the measurement samples. Calibration curve samples with the same composition were prepared (final concentrations of the evaluation compounds and brexpiprazole: 0.01, 0.1, and 1 μmol/L, with the proviso that for the evaluation compounds only, the 0-minute reaction samples were also used as calibration curve samples for 1 μmol/L). […]

Row | Compound | cytotoxicity at 24 h, 300 µM (in vitro) | Concentration of brexpiprazole formed [1] | Concentration of evaluation compound decreased [1]
1 | O=c1ccc2ccc(OCCCC[N+]3(COP(=O)([O-])O)CCN(c4cccc5sccc45)CC3)cc2[nH]1 [EX 2, (4-(benzo[b]thiophen-4-yl)-1-((4-((2-oxo-1,2-dihydroquinolin-7-yl)oxy)butyl)piperazin-1-ium-1-yl)methyl hydrogen phosphate] | -7% | 0 nM | 0 nM
2 | O=c1ccc2ccc(OCCCC[N+]3(COP(=O)([O-])OCCCCO)CCN(c4cccc5sccc45)CC3)cc2[nH]1 [EX 10, (4-(benzo[b]thiophen-4-yl)-1-(4-((2-oxo-1,2-dihydroquinolin-7-yl)oxy)butyl)piperazin-1-ium-1-yl)methyl (4-hydroxybutyl) phosphate] | -6% | 0 nM | -20 nM
3 | O=c1ccc2ccc(OCCCC[N+]3(COP(=O)([O-])OCCCCCCCCO)CCN(c4cccc5sccc45)CC3)cc2[nH]1 [EX 11, (4-(benzo[b]thiophen-4-yl)-1-(4-((2-oxo-1,2-dihydroquinolin-7-yl)oxy)butyl)piperazin-1-ium-1-yl)methyl (8-hydroxyoctyl) phosphate] | 16% | 0 nM | 30 nM
4 | COCCOP(=O)([O-])OC[N+]1(CCCCOc2ccc3ccc(=O)[nH]c3c2)CCN(c2cccc3sccc23)CC1 [EX 12, (4-(benzo[b]thiophen-4-yl)-1-(4-((2-oxo-1,2-dihydroquinolin-7-yl)oxy)butyl)piperazin-1-ium-1-yl)methyl (2-methoxyethyl) phosphate] | -7% | 0 nM | 20 nM
5 | CC(C)C(=O)OCOP(=O)([O-])OC[N+]1(CCCCOc2ccc3ccc(=O)[nH]c3c2)CCN(c2cccc3sccc23)CC1 [EX 24, (4-(benzo[b]thiophen-4-yl)-1-(4-((2-oxo-1,2-dihydroquinolin-7-yl)oxy)butyl)piperazin-1-ium-1-yl)methyl ((isobutyryloxy)methyl) phosphate] | 10% | 0 nM | -110 nM
6 | CCCCCCCC(=O)OC(C)OP(=O)([O-])OC[N+]1(CCCCOc2ccc3ccc(=O)[nH]c3c2)CCN(c2cccc3sccc23)CC1 (stereo not drawn) [EX 26, (4-(benzo[b]thiophen-4-yl)-1-(4-((2-oxo-1,2-dihydroquinolin-7-yl)oxy)butyl)piperazin-1-ium-1-yl)methyl (1-(octanoyloxy)ethyl) phosphate] | -5% | 0 nM | 50 nM
7 | CCOCC(=O)OCOP(=O)([O-])OC[N+]1(CCCCOc2ccc3ccc(=O)[nH]c3c2)CCN(c2cccc3sccc23)CC1 [EX 31, (4-(benzo[b]thiophen-4-yl)-1-(4-((2-oxo-1,2-dihydroquinolin-7-yl)oxy)butyl)piperazin-1-ium-1-yl)methyl ((2-ethoxyacetoxy)methyl) phosphate] | -8% |  | 
8 | CC(C)=CCC/C(C)=C\COP(=O)([O-])OC[N+]1(CCCCOc2ccc3ccc(=O)[nH]c3c2)CCN(c2cccc3sccc23)CC1 [EX 38, (Z)-(4-(benzo[b]thiophen-4-yl)-1-(4-((2-oxo-1,2-dihydroquinolin-7-yl)oxy)butyl)piperazin-1-ium-1-yl)methyl (3,7-dimethylocta-2,6-dien-1-yl) phosphate] | 0% |  | 
9 | CC(C)=CCC/C(C)=C/COP(=O)([O-])OC[N+]1(CCCCOc2ccc3ccc(=O)[nH]c3c2)CCN(c2cccc3sccc23)CC1 [EX 39, (E)-(4-(benzo[b]thiophen-4-yl)-1-(4-((2-oxo-1,2-dihydroquinolin-7-yl)oxy)butyl)piperazin-1-ium-1-yl)methyl (3,7-dimethylocta-2,6-dien-1-yl) phosphate] | 2% |  | 
10 | CCOC(=O)CCCCCOP(=O)([O-])OC[N+]1(CCCCOc2ccc3ccc(=O)[nH]c3c2)CCN(c2cccc3sccc23)CC1 [EX 61, (4-(benzo[b]thiophen-4-yl)-1-(4-((2-oxo-1,2-dihydroquinolin-7-yl)oxy)butyl)piperazin-1-ium-1-yl)methyl (6-ethoxy-6-oxohexyl) phosphate] | 5% |  | 
11 | O=C(O)CCOP(=O)([O-])OC[N+]1(CCCCOc2ccc3ccc(=O)[nH]c3c2)CCN(c2cccc3sccc23)CC1 [EX 112, (4-(benzo[b]thiophen-4-yl)-1-(4-((2-oxo-1,2-dihydroquinolin-7-yl)oxy)butyl)piperazin-1-ium-1-yl)methyl (2-carboxyethyl) phosphate] | -7% |  | 
12 | O=C(OCCCO)OCOP(=O)([O-])OC[N+]1(CCCCOc2ccc3ccc(=O)[nH]c3c2)CCN(c2cccc3sccc23)CC1 [EX 131, (4-(benzo[b]thiophen-4-yl)-1-(4-((2-oxo-1,2-dihydroquinolin-7-yl)oxy)butyl)piperazin-1-ium-1-yl)methyl ((((3-hydroxypropoxy)carbonyl)oxy)methyl) phosphate] | 10% |  | 
13 | CCC(=O)OP(=O)([O-])OC[N+]1(CCCCOc2ccc3ccc(=O)[nH]c3c2)CCN(c2cccc3sccc23)CC1 [EX 148, (4-(benzothiophen-4-yl)-1-(4-((2-oxo-1H-quinolin-7-yl)oxy)butyl)piperazin-1-ium-1-yl)methyl propanoyl phosphate] | -5% |  | 
14 | CC(C)C(=O)OP(=O)([O-])OC[N+]1(CCCCOc2ccc3ccc(=O)[nH]c3c2)CCN(c2cccc3sccc23)CC1 [EX 149, (4-(benzothiophen-4-yl)-1-(4-((2-oxo-1H-quinolin-7-yl)oxy)butyl)piperazin-1-ium-1-yl)methyl 2-methylpropanoyl phosphate] | -3% |  | 
15 | O=C(OC[N+]1(CCCCOc2ccc3ccc(=O)[nH]c3c2)CCN(c2cccc3sccc23)CC1)N1CCCCC1 [REX 4, 4-(benzo[b]thiophen-4-yl)-1-(4-((2-oxo-1,2-dihydroquinolin-7-yl)oxy)butyl)-1-(((piperidine-1-carbonyl)oxy)methyl)piperazin-1-ium iodide, reference compound] | 83% |  | 
